Columns and labels:
[1] = Inhibition of rat brain cortical membrane GABA alpha receptor by TBPS binding assay; type: cell membranes, Cortex
[2] = Cmax in human at 30 mg administered as formulated fasted capsules; type: ADME; parameters: dose 30 mg; conditions: in vivo, po
[3] = AUC (0 to infinity) in human at 30 mg administered as formulated fed (high-fat meal) capsules; type: ADME; parameters: dose 30 mg; conditions: in vivo, po
[4] = AUC (0 to infinity) in human at 30 mg administered as formulated fasted capsules; type: ADME; parameters: dose 30 mg; conditions: in vivo, po
[5] = Cmax in human at 30 mg administered as formulated fed (high-fat meal) capsules; type: ADME; parameters: dose 30 mg; conditions: in vivo, po
[6] = AUC (0 to t) in human at 30 mg administered as formulated fasted capsules; type: ADME; parameters: dose 30 mg; conditions: in vivo, po
[7] = AUC (0 to t) in human at 30 mg administered as formulated fed (high-fat meal) capsules; type: ADME; parameters: dose 30 mg; conditions: in vivo, po

SMILES	IC50 [1] [nM]	also measured
CC(=O)[C@H]1CC[C@H]2[C@@H]3CC[C@@H]4C[C@@](O)(C(F)F)CC[C@@H]4[C@H]3CC[C@]12C	33	–
COC[C@@]1(O)CC[C@H]2[C@@H](CC[C@@H]3[C@@H]2CC[C@]2(C)[C@@H](C(=O)CO)CC[C@@H]32)C1	94	–
C[C@@]1(O)CC[C@H]2[C@H](CC[C@@H]3[C@@H]2CC[C@]2(C)[C@@H](C(=O)CO)CC[C@@H]32)C1	86	Cmax [2]: 21.8 ng/mL; AUC(0-inf) [3]: 1010 ng·h/mL; AUC(0-inf) [4]: 640 ng·h/mL; Cmax [5]: 63.1 ng/mL; AUC(0-t) [6]: 530 ng·h/mL; AUC(0-t) [7]: 838 ng·h/mL
COC[C@@]1(O)CC[C@H]2[C@H](CC[C@@H]3[C@@H]2CC[C@]2(C)[C@@H](C(C)=O)CC[C@@H]32)C1	41	–
COC[C@@]1(O)CC[C@H]2[C@H](CC[C@@H]3[C@@H]2CC[C@]2(C)[C@@H](C(=O)CO)CC[C@@H]32)C1	170	–
CC(=O)[C@H]1CC[C@H]2[C@@H]3CC[C@H]4C[C@](C)(O)CC[C@@H]4[C@H]3CC[C@]12C	93	–

— ChEMBL document CHEMBL5365549, “Neurosteroids and Postpartum Depression: The Mechanism, Efficacy, and Approval of Brexanolone and Zurzuvae” (ACS Med Chem Lett, 2023)
